Assay results published in patent publication US7128897B2, “Aerosolized anti-infectives, anti-inflammatories, and decongestants for the treatment of sinusitis” (Naryx Pharma, Inc., priority 1999, dated 2006).

Legend:
[1] = system: sinusitis; type: in vivo, human; conditions: for efficacy of nose drop: nose drop (tobramycin 80 mg/ml; Mupirocin calcium 2%)
Protocol: A person had been suffering from sinusitis for most of their adult life. These sinusitis episodes seemed to be triggered by allergies. They historically had three-four (3–4) episodes of sinusitis each year, which were treated with oral antibiotics for four-eight (4–8) weeks per episode. These oral antibiotic regimens produced yeast infections, which were treated with Diflucan® (fluconazole). Relief from the headaches, malaise, facial pressure and pain, yellow-green nasal discharge, coughing and fever took up to six weeks and were treated with narcotic and non narcotic analgesics, decongestants, decongestant nasal sprays, cough suppressants, and nasal rinses. Their allergies were treated with antihistamines and anti-inflammatory agents. In an effort to reduce the duration of their sinusitis episodes, a nose drop of tobramycin 80 mg/ml was administered. […] The medication was irritating; and in order to administer the drops and try to get them into the sinus cavity, the patient had to hold their head back. This caused intolerable pain resulting in the discontinuation of the therapy. A nose drop of Bactoban® (Mupirocin calcium 2%) was tried. […] In order to eliminate the pain caused by holding their head back when administering nose drops, a nose drop of tobramycin was administered after the patient had been on oral antibiotics for a period of time.

[2] = system: paranasal sinusitis; conditions: 4 ml of 3% FOM solution; ultrasonic-type nebulizer compared with jet-type; cited from earlier work
[3] = system: clinical isolates from sinusitis patients; conditions: one percent (1%) solution used with a nebulizer; cited from earlier work
[4] = system: sinus infection; test: Nebulized antibiotic treatment of sinusitis patients (case reports, Patients A, B, C); type: in vivo, human; conditions: for time to "dumping" of green, purulent nasal discharge: nebulized three times daily
Protocol: Thereafter, a preparation of tobramycin 80 mg/ml was administered using 3 ml in a Pari LC Star® nebulizer cup with adult mask attached and a Pari Proneb® compressor. The medication was nebulized three (3) times daily. After four days of therapy, the patient experienced a “dumping” of green, purulent nasal discharge. The therapy was continued for a total of seven (7) days. […] Another seven (7) day regimen of nebulized tobramycin was given to the patient.
A preparation of cefuroxime 285 mg in 2.5 ml sterile water for injection was administered three (3) times daily using a Pari LC Star® nebulizer cup with adult mask attached and a Pari Proneb® compressor. […] After one day of therapy, a Pari Turbo® compressor was substituted for the Pari Proneb® compressor. The patient experienced a “dumping” of green, purulent nasal discharge after (3) days of therapy.
After the seven (7) days of treatment with nebulized cefuroxime using the Pari Turbo® compressor and the Pari LC Star® nebulizer cup with mask, the patient has remained free of sinus infections for nine (9) months. They have continued to experience problems with their allergies, and while in the past these allergies triggered sinus infections, this time no such infection has recurred.
A person had been experiencing sinus infections off and on during their adult life. They were treated with cefuroxime 285 mg in 2.5 ml of sterile water for injection three (3) times daily using a Pari LC Star® nebulizer cup with adult mask attached and a Pari Turbo® compressor. The patient experienced a “dumping” of green, purulent nasal discharge after eight (8) treatments. The therapy was continued for a total of seven (7) days. No other antibiotics were given. This patient has been free from sinus infections for six (6) months.
They were treated with cefuroxime 285 mg in 2.5 ml of sterile water for injection three (3) times daily using a Pari LC Star® nebulizer cup with adult mask attached and a Pari Turbo® compressor. The patient experienced a “dumping” of green, purulent nasal discharge after eight (8) treatments. The therapy was continued form a total of seven (7) days. No other antibiotics were given. This patient has been free from sinus infections for six (6) months.

[5] = system: refractory sinusitis; conditions: large particle saline aerosol therapy with tobramycin added; cited from earlier work
[6] = Patient A, second 7 day regimen of nebulized tobramycin

Q: Which “efficacy of nose drop” value ([1]; Patient A) does the source give for `C/C(=C\C(=O)OCCCCCCCCC(=O)[O-])C[C@@H]1OC[C@H](C[C@@H]2O[C@H]2[C@@H](C)[C@H](C)O)[C@@H](O)[C@H]1O.C/C(=C\C(=O)OCCCCCCCCC(=O)[O-])C[C@@H]1OC[C@H](C[C@@H]2O[C@H]2[C@@H](C)[C@H](C)O)[C@@H](O)[C@H]1O.O.O.[Ca+2]` [Bactoban, Mupirocin calcium] here?
A: The value was “not efficacious”.

Q: With `C[C@@H]1O[C@@H]1P(=O)(O)O` [FOM, fosfomycin] as the molecule, how does the “delivery to maxillary sinus surface, ultrasonic-type vs jet-type nebulizer” value [2] read?
A: Its value is “higher concentration of FOM to the maxillary sinus surface”.

Q: Which minimum inhibitory concentrations [3] does the source give for `CO/N=C(\C(=O)N[C@@H]1C(=O)N2C(C(=O)O)=C(CSc3nnnn3C)CS[C@H]12)c1csc(N)n1` [cefmenoxime] here?
A: The minimum inhibitory concentrations was “minimum inhibitory concentrations were lower”.

Q: What does the source list for `CO/N=C(\C(=O)N[C@@H]1C(=O)N2C(C(=O)O)=C(COC(N)=O)CS[C@H]12)c1ccco1` [cefuroxime, Cefuroxime]?
A: adverse event during nebulized therapy ([4]; Patient A, 285 mg in 2.5 ml nebulized three times daily, 7 days): contracted a yeast infection; time free of sinus infections after treatment ([4]; Patient A, 285 mg in 2.5 ml nebulized three times daily, 7 days, Pari Turbo compressor): 9 months; time to "dumping" of green, purulent nasal discharge ([4]; Patient A): 3 days; number of treatments until "dumping" of green, purulent nasal discharge ([4]; Patient B, 285 mg in 2.5 ml nebulized three times daily): 8 treatments; time free from sinus infections after treatment ([4]; Patient B, 285 mg in 2.5 ml nebulized three times daily, 7 days): 6 months; number of treatments until "dumping" of green, purulent nasal discharge ([4]; Patient C, 285 mg in 2.5 ml nebulized three times daily): 8 treatments; time free from sinus infections after treatment ([4]; Patient C, 285 mg in 2.5 ml nebulized three times daily, 7 days): 6 months

Q: What does the source list for `NC[C@H]1O[C@H](O[C@H]2[C@H](O)[C@@H](O[C@H]3O[C@H](CO)[C@@H](O)[C@H](N)[C@H]3O)[C@H](N)C[C@@H]2N)[C@H](N)C[C@@H]1O` [tobramycin, Tobramycin]?
A: efficacy of nose drop ([1]; Patient A): did not seem to work; efficacy of nose drop given after oral antibiotics ([1]; Patient A, nose drop after a period on oral antibiotics): did not seem to work; tolerability of nose drop ([1]; human, in vivo): irritating; relapse after first seven day regimen ([4]; Patient A, first 7 day regimen of nebulized tobramycin): relapse was experienced within a month; time to "dumping" of green, purulent nasal discharge ([4]; Patient A): four; outcome after second seven day regimen [4, 6]: sinus infection seemed to be eliminated; time to recurrence after second seven day regimen [4, 6]: ≤ 2 months; outcome after first seven day regimen ([4]; Patient A, tobramycin 80 mg/ml, 3 ml nebulized three times daily, 7 days): sinus infection had been eliminated; benefit of addition to saline aerosol [5]: minimal benefit
